Source: patent US9309179B2 (FAB PHARMA S.A.S., priority 2006, dated 2016)
≈ marks a conversion by molar mass, not a printed value. Where a name gives a salt, the structure may show the parent alone. Read-outs that look alike come from different tables or passages of the source.

Tests used:
[1] = system: E. coli CIP 76.24; assay: MIC, broth microdilution; assay type: cell-based; details: Escherichia coli, read-out: MIC E. coli CIP 76.24
Experimental: (§1) The compounds of the present invention are useful antibacterial agents having a selective spectrum of activity in vitro against standard bacterial strains which are used to screen for activity against pathogenic bacteria. […] The activity is presented as Minimum Inhibitory Concentration (MIC) expressed in μg/ml.
(§2) Whole-cell antimicrobial activity was determined by broth microdilution method in microtiterplates. The compound was tested in serial 4-fold dilutions ranging from 0.06 to 64 mcg/mL. Test organisms were selected from the following laboratory strains: Staphylococcus aureus CIP 76.25, Staphylococcus aureus BAA39 MDR, Staphylococcus aureus NEM 14157 PeniR, Staphylococcus aureus CIP 54.146, Escherichia coli CIP 76.24. Bacteria were tested in Tryptic Soy (TS) or Mueller Hinton (MH) broth using an inoculum of 10^4 to 10^6 UFC/mL incubated at 37° C. for 20 h.
(§3) The minimum inhibitory concentration (MIC) was determined as the lowest concentration of compound at which no visible bacteria growth is observed (90% inhibition of absorbance of at […].)

[2] = system: S. aureus CIP 76.25; assay: MIC, broth microdilution; assay type: cell-based; details: Staphylococcus aureus, read-out: MIC S. aureus CIP 76.25
Experimental: as §1, §2, §3

[3] = system: S. aureus BAA39MDR; assay: MIC, broth microdilution; assay type: cell-based; details: Staphylococcus aureus, 20 h, read-out: MIC S. aureus BAA39MDR
Experimental: as §1, §2, §3

[4] = system: S. aureus NEM14157; assay: MIC, broth microdilution; assay type: cell-based; details: Staphylococcus aureus, read-out: MIC S. aureus NEM14157
Experimental: as §1, §2, §3

[5] = target: T1, recombinant E. coli FabI enzyme (Escherichia coli, UniProt P0AEK4); assay: FabI inhibition, fluorescence-based NADH assay; assay type: biochemical
T1 construct: 6-His (C); made in house; host or cells: prokaryotic expression vector
T1 sequence (P0AEK4 whole entry): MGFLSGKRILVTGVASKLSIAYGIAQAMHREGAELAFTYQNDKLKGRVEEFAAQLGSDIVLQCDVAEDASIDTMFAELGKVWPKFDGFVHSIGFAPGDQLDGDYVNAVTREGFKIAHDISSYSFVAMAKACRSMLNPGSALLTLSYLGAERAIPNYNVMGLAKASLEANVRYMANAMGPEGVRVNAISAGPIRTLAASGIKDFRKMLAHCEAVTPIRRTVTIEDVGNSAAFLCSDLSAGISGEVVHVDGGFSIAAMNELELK
Experimental: Compound inhibitory activity of FabI enzyme is measured in vitro by the IC50 determination using a fluorescent based assay.
The protein FabI from E. coli is prepared and purified using standard methods for recombinant protein expression after cloning of the gene in a prokaryotic expression vector.
The biochemical activity of the FabI enzyme is assessed using the following method.
The assay buffer “AB” contains 50 mM Hepes pH7.5, 100 μM Dithiothreitol, 0.006% Triton-X100. The following components are added in a black polystyrene Costar plate up to a final volume of 55 μL: 1.5 μL DMSO, or inhibitor dissolved in DMSO and 53.5 μL of a FabI/NADH/NAD+ mixture in AB. After 60 min of pre-incubation at room temperature, the reaction is started by addition of 5 μL of Crotonoyl-CoA to a final volume of 60 μL. This reaction mixture is then composed of 40 nM FabI (produced in house from E. coli, C-terminal 6-His tagged), 20 μM NADH (Biochemika), 10 μM NAD+ (Biochemika), 50 μM Crotonoyl-CoA (Biochemika) and compound at defined concentration. Fluorescence intensity of NADH (lex=360 nm, lem=520 nm) is measured immediately after Crotonoyl-CoA addition, and 2 hours later by a Fluostar Optima (BMG). Enzyme activity is proportional to the signal decrease from which inhibition percentages are derived. For IC50 determinations, the inhibitor is tested at 6 to 10 different concentrations, and the related inhibitions are fitted to a classical langmuir equilibrium model using XLFIT (IDBS).
In Vitro Inhibition of Recombinant E. coli FabI Enzyme by Selected Compounds of Formula (I).

[6] = CIP76, broth microdilution, 37° C., 20 h
[7] = NEM14157, broth microdilution, 37° C., 20 h
[8] = recombinant E. coli FabI 40 nM, 60 min pre-incubation, NADH fluorescence, read-out: IC50

Row | Structure (SMILES) | MIC [1, 6] [µg/mL] | MIC [2, 6] [µg/mL] | MIC ([3]; broth microdilution, 37° C.) [µg/mL] | MIC [4, 7] [µg/mL] | other results
1 | CCc1ccc(Oc2ccc(S(N)(=O)=O)cc2F)c(O)c1 [Example 65, 4-(4-ethyl-2-hydroxyphenoxy)-3-fluorobenzene sulfonamide] | 1 (≈ 3.21 µM) | 0.25 (≈ 0.803 µM) |  |  | 
2 | CCc1ccc(Oc2cccc(F)n2)c(O)c1 [Example 3, 5-ethyl-2-[(6-fluoropyridin-2-yl)oxy]phenol] | 4 (≈ 17.1 µM) | 0.25 (≈ 1.07 µM) | 0.25 (≈ 1.07 µM) | 0.25 (≈ 1.07 µM) | 
3 | CCc1ccc(Oc2ccc(S(=O)(=O)NCCNC(C)=O)cc2F)c(O)c1 [Example 70, N-{2-[4-(4-Ethyl-2-hydroxy-phenoxy)-3-fluoro-benzenesulfonylamino]-ethyl}-acetamide] | 16 (≈ 40.4 µM) | 0.25 (≈ 0.631 µM) |  |  | 
4 | Oc1cc(Cl)ccc1Oc1ccc(Cl)cc1Cl [Triclosan, 5-chloro-2-(2,4-dichloro-phenoxy)-phenol, reference compound] |  |  |  |  | MIC ([1]; CIP76, 20 h): 0.25 µg/mL (≈ 0.863 µM); MIC ([2]; CIP76, 20 h): 0.125 µg/mL (≈ 0.432 µM)
5 | CCc1ccc(Oc2ccc(NCCO)cc2F)c(O)c1 [Example 81, 5-Ethyl-2-[2-fluoro-4-(2-hydroxyethylamino)-phenoxy]phenol] | 4 (≈ 13.7 µM) | 0.25 (≈ 0.858 µM) |  |  | 
6 | CCCc1ccc(Oc2cc(F)cc(F)n2)c(O)c1 [Example 25A, 2-[(4,6-difluoropyridin-2-yl)oxy]-5-propylphenol] | 16 (≈ 60.3 µM) | 0.25 (≈ 0.942 µM) |  |  | 
7 | CCc1ccc(Oc2ccc(C(C)=O)cc2F)c(OC(=O)CN)c1 [Example 85, acetate hydrochloride] |  |  |  |  | IC50 [5, 8]: 110 nM; MIC ([1]; CIP76, 20 h): 1 µg/mL; MIC ([2]; CIP76, 20 h): 0.062 µg/mL
8 | CCc1ccc(Oc2ccc(OCCCN3C(=O)c4ccccc4C3=O)cc2F)c(O)c1 [Example 38, 2-{3-[4-(4-Ethyl-2-hydroxy-phenoxy)-3-fluoro-phenoxy]-propyl}-isoindole-1,3-dione] | 4 (≈ 9.19 µM) | 0.062 (≈ 0.142 µM) | 0.25 (≈ 0.574 µM) | 1 (≈ 2.3 µM) | 
9 | CCCNS(=O)(=O)c1ccc(Oc2ccc(CC)cc2O)c(F)c1 [Example 71, 4-(4-ethyl-2-hydroxyphenoxy)-3-fluoro-N-propyl benzenesulfonamide] | 4 (≈ 11.3 µM) | < 0.062 | 0.25 (≈ 0.707 µM) | 0.062 (≈ 0.175 µM) | IC50 [5]: 330 nM
10 | CCc1ccc(Oc2ccc(NCc3cccnc3)cc2F)c(O)c1 [Example 66, 5-ethyl-2-{2-fluoro-4-[(pyridin-3-ylmethyl)amino]phenoxy}phenol] | 16 (≈ 47.3 µM) | 0.25 (≈ 0.739 µM) |  |  | 
11 | CCc1cc(O)c(Oc2ccc(N)cc2)cc1F [Example 62, 2-(4-aminophenoxy)-5-ethyl-4-fluorophenol] | 4 (≈ 16.2 µM) | 0.25 (≈ 1.01 µM) |  |  | 
12 | CCc1ccc(Oc2ccc(C(=O)CCCO)cc2)c(O)c1 [Example 86, 1-[4-(4-ethyl-2-hydroxyphenoxy)phenyl]-4-hydroxy butan-1-one] | 4 (≈ 13.3 µM) | 0.062 (≈ 0.206 µM) | 0.062 (≈ 0.206 µM) | 0.062 (≈ 0.206 µM) | 
13 | CCCc1ccc(Oc2cccnc2N)c(O)c1 [Example 55, 2-(2-Aminopyridin-3-yloxy)-5-propylphenol] | 1 (≈ 4.09 µM) | 0.25 (≈ 1.02 µM) |  |  | IC50 [5]: 92 nM
14 | CCc1cc(O)c(Oc2cccc(F)n2)cc1F [Example 57] | 4 (≈ 15.9 µM) | 0.25 (≈ 0.995 µM) |  |  | IC50 [5]: 1100 nM
15 | CCc1ccc(Oc2ccccc2N)c(O)c1 [Example 34, 2-(2-aminophenoxy)-5-ethylphenol] | 1 (≈ 4.36 µM) | 0.25 (≈ 1.09 µM) | 0.25 (≈ 1.09 µM) | 0.25 (≈ 1.09 µM) | 
16 | CCc1ccc(Oc2cc(F)ccc2N)c(O)c1 [Example 50, 2-(2-amino-5-fluorophenoxy)-5-ethylphenol] |  |  |  |  | IC50 [5, 8]: 300 nM

Row | Structure (SMILES) | MIC [1, 6] [µg/mL] | MIC [2, 6] [µg/mL] | MIC ([3]; broth microdilution, 37° C.) [µg/mL] | MIC [4, 7] [µg/mL] | other results
17 | CCc1ccc(Oc2ccc(NS(=O)(=O)C3CC3)cc2F)c(O)c1 [Example 52, N-[4-(4-ethyl-2-hydroxyphenoxy)-3-fluorophenyl]cyclopropane sulfonamide] | 16 (≈ 45.5 µM) | 1 (≈ 2.85 µM) |  |  | 
18 | CCCc1ccc(Oc2cccc(Cl)n2)c(O)c1 [Example 6, 2-[(6-chloropyridin-2-yl)oxy]-5-propylphenol] | 16 (≈ 60.7 µM) | 1 (≈ 3.79 µM) | 1 (≈ 3.79 µM) | 1 (≈ 3.79 µM) | 
19 | CCc1ccc(Oc2ccc(NCCCCO)cc2F)c(O)c1 [Example 37, 5-ethyl-2-{2-fluoro-4-[(4-hydroxybutyl)amino]phenoxy}phenol] | 4 (≈ 12.5 µM) | 0.062 (≈ 0.194 µM) | 0.25 (≈ 0.783 µM) | 0.25 (≈ 0.783 µM) | IC50 [5]: 410 nM
20 | CCc1ccc(Oc2ccc(C(C)=O)cc2F)c(O)c1 [Example 29, 1-[4-(4-ethyl-2-hydroxyphenoxy)-3-fluorophenyl]ethanone] | 1 (≈ 3.65 µM) | 0.062 (≈ 0.226 µM) | 0.062 (≈ 0.226 µM) | 0.062 (≈ 0.226 µM) | IC50 [5]: 150 nM
21 | CCCc1ccc(Oc2ccc(OC)cc2)c(O)c1 [Example 16, 2-(4-methoxyphenoxy)-5-propylphenol] | 4 (≈ 15.5 µM) | 0.25 (≈ 0.968 µM) | 0.25 (≈ 0.968 µM) | 0.25 (≈ 0.968 µM) | IC50 [5]: 510 nM
22 | Oc1cc(CC(F)(F)F)ccc1Oc1cccc(F)n1 [Example 27, 2-[(6-fluoropyridin-2-yl)oxy]-5-(2,2,2-trifluoroethyl)phenol] | 4 (≈ 13.9 µM) | 0.25 (≈ 0.87 µM) | 0.25 (≈ 0.87 µM) | 0.25 (≈ 0.87 µM) | IC50 [5, 8]: 470 nM
23 | CCc1ccc(Oc2ccc(NCCCNS(C)(=O)=O)cc2F)c(O)c1 [Example 79, N-methanesulfonyl-N-1-[4-(4-ethyl-2-hydroxyphenoxy)-3-fluorophenyl]propan-1,3-diamine] | 16 (≈ 41.8 µM) | 0.25 (≈ 0.654 µM) | 0.25 (≈ 0.654 µM) | 0.25 (≈ 0.654 µM) | 
24 | CCCc1ccc(Oc2nc(Cl)ccc2N)c(O)c1 [Example 1, 2-[(3-amino-6-chloropyridin-2-yl)oxy]-5-propylphenol] | 16 (≈ 57.4 µM) | 1 (≈ 3.59 µM) | 1 (≈ 3.59 µM) | 0.25 (≈ 0.897 µM) | 
25 | Oc1cc(Cn2cncn2)ccc1Oc1cccc(F)n1 [Example 32, 2-[(6-fluoropyridin-2-yl)oxy]-5-(1H-1,2,4-triazol-1-ylmethyl)phenol] | 16 (≈ 55.9 µM) | 4 (≈ 14 µM) |  |  | 
26 | CCc1ccc(Oc2ccc(S(C)(=O)=O)cc2)c(O)c1 [Example 47, 5-ethyl-2-[4-(methylsulfonyl)phenoxy]phenol] | 16 (≈ 54.7 µM) | 0.25 (≈ 0.855 µM) |  |  | 
27 | CCCNc1ccc(Oc2ccc(CC)cc2O)c(F)c1 [Example 82, 5-ethyl-2-[2-fluoro-4-(propylamino)phenoxy]phenol] | 16 (≈ 55.3 µM) | 0.25 (≈ 0.864 µM) |  |  | 
28 | CCc1ccc(Oc2ccc(S(=O)(=O)NCCO)cc2F)c(O)c1 [Example 67, 4-(4-ethyl-2-hydroxyphenoxy)-3-fluoro-N-(2-hydroxyethyl)benzenesulfonamide] | 16 (≈ 45 µM) | 0.25 (≈ 0.703 µM) |  |  | 
29 | CCCc1ccc(Oc2cccc(N)n2)c(O)c1 [Example 7, 2-[(6-aminopyridin-2-yl)oxy]-5-propylphenol] | > 16 | 2 (≈ 8.19 µM) |  |  | 
30 | Oc1cc(C(F)=C(F)F)ccc1Oc1cccc(F)n1 [Example 28, 2-[(6-fluoropyridin-2-yl)oxy]-5-(trifluorovinyl) phenol] |  |  |  |  | IC50 [5, 8]: 850 nM
31 | CCc1ccc(Oc2ccc(OCCCN)cc2F)c(O)c1 [Example 39, 2-[4-(3-aminopropoxy)-2-fluorophenoxy]-5-ethyl phenol] |  |  |  |  | MIC ([1]; CIP76, 20 h): 16 µg/mL (≈ 52.4 µM); MIC [3]: 1 µg/mL (≈ 3.27 µM); MIC ([2]; CIP76, 20 h): 1 µg/mL (≈ 3.27 µM); MIC ([4]; NEM14157, 20 h): 1 µg/mL (≈ 3.27 µM)
32 | CCc1ccc(Oc2ccc(OCCCC(=O)O)cc2F)c(O)c1 [Example 74, 4-[4-(4-Ethyl-2-hydroxy-phenoxy)-3-fluoro-phenoxy]-butyric acid] | 4 (≈ 12 µM) | 0.062 (≈ 0.185 µM) | 0.062 (≈ 0.185 µM) | 0.062 (≈ 0.185 µM) | 
